Values after ≈ are worked out from the molar mass of the structure shown. Like-named read-outs stand apart in the source and are kept apart here.
Tests used:
[1] = tested on: HIV-1/TIBO R82150 (100-Ile); settings: background, Balzarini I/II; cited from earlier work
[2] = tested on: HIV-1(IIIB); assay: Knock-out concentrations: breakthrough of HIV-1(IIIB)-induced cytopathicity in CEM cell cultures; type: cell-based
Experimental: The culture medium consisted of RPMI 1640 containing 10% fetal bovine serum, 2 mM L-glutamine, and 0.075% NaHCO3. The multiplicity of the initial infection was ~1000 times the CCID50 (50% cell culture infective dose). Passages were performed every 3 to 4 days by adding 0.5 to 1.0 ml of the infected culture supernatant to 5 ml of a suspension containing 4×10^5 uninfected CEM cells per ml. Syncytium formation was used as a parameter of virus breakthrough in the cell cultures. In the drug combination experiments, the compounds were combined at the same initial concentrations as used for the two lowest concentrations in the single-drug experiments.
The drug concentrations were kept constant throughout the whole time period of the experiment (10 subcultivations or 35 days). Then the drugs were removed from the cell cultures, and the cells were further subcultured for at least 5 additional passages.

[3] = tested on: HIV-1/IV(0.1) 103-Thr; assay: Sensitivity of mutant HIV-1 strain in CEM cell cultures; type: cell-based; settings: Table 5
Experimental: (§1) CEM cells were suspended at 250,000 cells per ml of culture medium and infected with wild-type HIV-I(IIIB) or mutant HIV-1 strains at 100 50% cell culture infective doses per ml. Then 100 μl of the infected cell suspensions was added to 200-μl microtiter plate wells containing 100 μl of an appropriate dilution of the test compounds. After 4 days incubation at 37° C., the cell cultures were examined for syncytium formation.

[4] = tested on: HIV-1/TIBO R82913 (103-Asn); assay: as above; type: cell-based; settings: CEM cells, Table 1
Experimental: as §1

[5] = tested on: HIV-1/Pyr (181-Cys); assay: as above; type: cell-based; settings: CEM cells, Table 1
Experimental: as §1

[6] = tested on: HIV-1/TIBO R82150 (100-Ile); assay: as above; type: cell-based; settings: CEM cells, Table 1
Experimental: as §1

[7] = tested on: HIV-1/Nev (106-Ala); assay: as above; type: cell-based; settings: CEM cells, Table 1
Experimental: as §1

[8] = tested on: HIV-1/III(0.1) 103-Asn; assay: as above; type: cell-based; settings: Table 5
Experimental: as §1

[9] = tested on: HIV-1/B 101Glu; assay: as above; type: cell-based; settings: Table 5
Experimental: as §1

[10] = tested on: HIV-1/V(0.5) 103-Asn; assay: as above; type: cell-based; settings: Table 5
Experimental: as §1

[11] = tested on: HIV-1/V(0.1) 101-Ile + 141-Glu; assay: as above; type: cell-based; settings: Table 5
Experimental: as §1

[12] = tested on: HIV-1/II(0.1) 100-Ile; assay: as above; type: cell-based; settings: Table 5
Experimental: as §1

[13] = tested on: HIV-1/TSAO-m^3 T (138-Lys); assay: as above; type: cell-based; settings: CEM cells, Table 1
Experimental: as §1

[14] = tested on: HIV-1/I(0.1) 103-Asn; assay: as above; type: cell-based; settings: Table 5
Experimental: as §1

[15] = tested on: HIV-1(IIIB) (WT); assay: microbe, parasite or virus in culture; type: cell-based; settings: Human immunodeficiency virus 1, IIIB, CCRF-CEM
Experimental: as §1

[16] = target: HIV-1 RT (WT) (Human immunodeficiency virus type 1 group M subtype B, UniProt P03366); assay: biochemical; settings: IC50, anti-HIV-1 RT (WT) activity
Experimental: The reaction mixture (50 μl) contained 50 mM Tris.HCl, pH 7.8, 5 mM dithiothreitol, […] glutathione, 500 μM EDTA, 150 mM KCl, 5 mM MgCl2, 1.25 μg of bovine serum albumin, a fixed concentration of the labeled substrate [2,8-^3 H]dGTP (2.95 μM, 2 μCi), a fixed concentration of the template/primer poly(C).oligo(dG) (0.1 mM), 0.06% Triton X-100, 5 μl of inhibitor solution [containing various concentrations (5-fold dilutions) of the test compounds], and 5 μl of the RT preparation. The reaction mixtures were incubated at 37° C. for 30 min, at which time 100 μl of calf thymus DNA (150 μg/ml), 2 ml of Na4 P2 07 (0.1 M in 1M HCl), and 2 ml of trichloroacetic acid (10%, v/v) were added. The solutions were kept on ice for 30 min, after which the acid-insoluble material was washed and analyzed for radioactivity.
Compounds I, III, IV and V were evaluated for their inhibitory effect on recombinant HIV-1 RT.

[17] = CEM cells, Table 1, read-out: 50% Effective Concentration
[18] = HIV-1 (III8), Table 5, read-out: EC50
[19] = Human immunodeficiency virus 1, CCRF-CEM, read-out: EC50
[20] = Human immunodeficiency virus 1, CCRF-CEM, read-out: 50% Effective Concentration

## CC(C)=CCN1Cc2cccc3[nH]c(=S)n(c23)C[C@@H]1C [Compound R82150]
[1]
  resistance of HIV-1 strains containing the 100 Leu→Ile mutation in their RT: resistant

## Cc1ccnc2c1NC(=O)c1cccnc1N2C1CC1 [Nevirapine, reference compound]
[2]; 0.1 μg/ml, day 4 post infection
  HIV-1-induced cytopathicity in cell culture: 37.5 percentage of control
[2]; 0.1 μg/ml, day 8 post infection
  HIV-1-induced cytopathicity in cell culture: 87.5 percentage of control
[2]; 0.1 μg/ml, day 11 post infection
  HIV-1-induced cytopathicity in cell culture: 100 percentage of control
[2]; 0.1 μg/ml, day 14 post infection
  HIV-1-induced cytopathicity in cell culture: 100 percentage of control
[2]; 0.1 μg/ml, day 17 post infection
  HIV-1-induced cytopathicity in cell culture: 100 percentage of control
[2]; 0.1 μg/ml, day 21 post infection
  HIV-1-induced cytopathicity in cell culture: 100 percentage of control
[2]; 0.1 μg/ml, day 25 post infection
  HIV-1-induced cytopathicity in cell culture: 100 percentage of control
[2]; 0.1 μg/ml, day 28 post infection
  HIV-1-induced cytopathicity in cell culture: 100 percentage of control
[2]; 0.1 μg/ml, day 32 post infection
  HIV-1-induced cytopathicity in cell culture: 100 percentage of control
[2]; 0.1 μg/ml, day 35 post infection
  HIV-1-induced cytopathicity in cell culture: 100 percentage of control
[2]; 0.1 μg/ml, day 39 post infection, compound absent from day 35
  HIV-1-induced cytopathicity in cell culture: 100 percentage of control
[2]; 0.1 μg/ml, day 42 post infection, compound absent from day 35
  HIV-1-induced cytopathicity in cell culture: 100 percentage of control
[2]; 0.1 μg/ml, day 46 post infection, compound absent from day 35
  HIV-1-induced cytopathicity in cell culture: 100 percentage of control
[2]; 0.1 μg/ml, day 49 post infection, compound absent from day 35
  HIV-1-induced cytopathicity in cell culture: 100 percentage of control
[2]; 0.1 μg/ml, day 53 post infection, compound absent from day 35
  HIV-1-induced cytopathicity in cell culture: 100 percentage of control
[2]; 0.5 μg/ml, day 4 post infection
  HIV-1-induced cytopathicity in cell culture: 6.25 percentage of control
[2]; 0.5 μg/ml, day 8 post infection
  HIV-1-induced cytopathicity in cell culture: 25 percentage of control
[2]; 0.5 μg/ml, day 11 post infection
  HIV-1-induced cytopathicity in cell culture: 50 percentage of control
[2]; 0.5 μg/ml, day 14 post infection
  HIV-1-induced cytopathicity in cell culture: 100 percentage of control
[2]; 0.5 μg/ml, day 17 post infection
  HIV-1-induced cytopathicity in cell culture: 100 percentage of control
[2]; 0.5 μg/ml, day 21 post infection
  HIV-1-induced cytopathicity in cell culture: 100 percentage of control
[2]; 0.5 μg/ml, day 25 post infection
  HIV-1-induced cytopathicity in cell culture: 100 percentage of control
[2]; 0.5 μg/ml, day 28 post infection
  HIV-1-induced cytopathicity in cell culture: 100 percentage of control
[2]; 0.5 μg/ml, day 32 post infection
  HIV-1-induced cytopathicity in cell culture: 100 percentage of control
[2]; 0.5 μg/ml, day 35 post infection
  HIV-1-induced cytopathicity in cell culture: 100 percentage of control
[2]; 0.5 μg/ml, day 39 post infection, compound absent from day 35
  HIV-1-induced cytopathicity in cell culture: 100 percentage of control
[2]; 0.5 μg/ml, day 42 post infection, compound absent from day 35
  HIV-1-induced cytopathicity in cell culture: 100 percentage of control
[2]; 0.5 μg/ml, day 46 post infection, compound absent from day 35
  HIV-1-induced cytopathicity in cell culture: 100 percentage of control
[2]; 0.5 μg/ml, day 49 post infection, compound absent from day 35
  HIV-1-induced cytopathicity in cell culture: 100 percentage of control
[2]; 0.5 μg/ml, day 53 post infection, compound absent from day 35
  HIV-1-induced cytopathicity in cell culture: 100 percentage of control
[2]; 2.5 μg/ml, day 4 post infection
  HIV-1-induced cytopathicity in cell culture: 0 percentage of control
[2]; 2.5 μg/ml, day 8 post infection
  HIV-1-induced cytopathicity in cell culture: 0 percentage of control
[2]; 2.5 μg/ml, day 11 post infection
  HIV-1-induced cytopathicity in cell culture: 6.25 percentage of control
[2]; 2.5 μg/ml, day 14 post infection
  HIV-1-induced cytopathicity in cell culture: 25 percentage of control
[2]; 2.5 μg/ml, day 17 post infection
  HIV-1-induced cytopathicity in cell culture: 62.5 percentage of control
[2]; 2.5 μg/ml, day 21 post infection
  HIV-1-induced cytopathicity in cell culture: 100 percentage of control
[2]; 2.5 μg/ml, day 25 post infection
  HIV-1-induced cytopathicity in cell culture: 100 percentage of control
[2]; 2.5 μg/ml, day 28 post infection
  HIV-1-induced cytopathicity in cell culture: 100 percentage of control
[2]; 2.5 μg/ml, day 32 post infection
  HIV-1-induced cytopathicity in cell culture: 100 percentage of control
[2]; 2.5 μg/ml, day 35 post infection
  HIV-1-induced cytopathicity in cell culture: 100 percentage of control
[2]; 2.5 μg/ml, day 39 post infection, compound absent from day 35
  HIV-1-induced cytopathicity in cell culture: 100 percentage of control
[2]; 2.5 μg/ml, day 42 post infection, compound absent from day 35
  HIV-1-induced cytopathicity in cell culture: 100 percentage of control
[2]; 2.5 μg/ml, day 46 post infection, compound absent from day 35
  HIV-1-induced cytopathicity in cell culture: 100 percentage of control
[2]; 2.5 μg/ml, day 49 post infection, compound absent from day 35
  HIV-1-induced cytopathicity in cell culture: 100 percentage of control
[2]; 2.5 μg/ml, day 53 post infection, compound absent from day 35
  HIV-1-induced cytopathicity in cell culture: 100 percentage of control
[3]
  EC50: 2.7 µg/mL (≈ 10.1 µM)
[4]
  50% Effective Concentration: 1.5 µg/mL
[5]
  50% Effective Concentration: 2.30 µg/mL
[6]
  50% Effective Concentration: 0.100 µg/mL
[7]
  50% Effective Concentration: 2.3 µg/mL
[8]
  EC50: 0.38 µg/mL (≈ 1.43 µM)
[9]
  EC50: > 2.5 µg/mL
[10]
  EC50: ≥ 5 µg/mL
[11]
  EC50: 0.24 µg/mL (≈ 0.901 µM)
[12]
  EC50: ≥ 5 µg/mL
[13]
  50% Effective Concentration: 0.030 µg/mL
[14]
  EC50: 1.7 µg/mL (≈ 6.38 µM)
[15]; [17]
  EC50: 0.007 µg/mL (≈ 0.0263 µM)
[15]; [18]
  EC50: 0.007 µg/mL (≈ 0.0263 µM)

## CCc1cc(NCc2nc3c(Cl)ccc(Cl)c3o2)c(O)nc1C [Pyridinone L-697,661, 3-{[(4,7-dichloro-1,3-benzoxazol-2-yl)methyl]amino}-5-ethyl-6-methylpyridin-2(1H)-one, reference compound]
[16]
  IC50: 1.08 µM
[3]; [19]
  EC50: 0.5 µg/mL (≈ 1.42 µM)
[4]; [20]
  EC50: 0.5 µg/mL (≈ 1.42 µM)
[5]; [20]
  EC50: 3.67 µg/mL (≈ 10.4 µM)
[6]; [20]
  EC50: 0.18 µg/mL (≈ 0.511 µM)
[7]; [20]
  EC50: 0.24 µg/mL (≈ 0.681 µM)
[8]; [19]
  EC50: 0.03 µg/mL (≈ 0.0852 µM)
[9]; [19]
  EC50: 0.035 µg/mL (≈ 0.0994 µM)
[10]; [19]
  EC50: 0.55 µg/mL (≈ 1.56 µM)
[11]; [19]
  EC50: 0.08 µg/mL (≈ 0.227 µM)
[12]; [19]
  EC50: 0.63 µg/mL (≈ 1.79 µM)
[13]; [20]
  EC50: 0.17 µg/mL (≈ 0.483 µM)
[14]; [19]
  EC50: 0.3 µg/mL (≈ 0.852 µM)
[15]; [17]
  EC50: 0.007 µg/mL (≈ 0.0199 µM)
[15]; [18]
  EC50: 0.007 µg/mL (≈ 0.0199 µM)

From US5968910A, “Compositions containing two or three inhibitors of different HIV reverse transcriptases” (priority 1994, dated 1999)
